The values below come from patent US9439975B2, “Small efficient cell penetrating peptides derived from the scorpion toxin maurocalcine” (Commissariat A L'Energie Atomique Et Aux Energies …, priority 2011, dated 2016).

Square brackets hold non-standard residues; d marks the D form. Ends that are not written are not given here. Abu = CC[C@H](N)C(=O)O

For one series, the target named is proteoglycans. To be noted: cited from earlier work.
The conditions of series [1]: in vitro and in vivo; cited from earlier work.
The test system of another series is cells. To be noted: cited from earlier work.
Series [2] concerns the target ryanodine receptor type 1 (RyR1) (Oryctolagus cuniculus, UniProt P11716). To be noted: earlier reports; cited from earlier work.
The conditions of series [3]: upon intravenous injection; cited from earlier work.
In another series the test system is CHO cells. Nature of the series: MTT assay of cell viability. Format: cell-based, Chinese hamster. To be noted: 1 or 10 μM peptide, 24 hrs. As for the experimental part: Cells were seeded into 96-well micro plates at a density of approximately 8×10^4 cells/well. […] Control wells containing cell culture medium alone or with cells, both without peptide addition, were included in each experiment. 0.1% saponin was used as toxic agent for comparison. The cells were then incubated with 3-(4, 5-dimethylthiazol-2-yl)-2, 5-diphenyl-tetrazolium bromide (MTT) for 30 min. Conversion of MTT into purple colored MTT formazan by the living cells indicates the extent of cell viability. The crystals were dissolved with dimethyl sulfoxide (DMSO) and the optical density was measured at 540 nm using a microplate reader (Biotek ELx-800, MANDEL SCIENTIFIC INC.) for quantification of cell viability. All assays were run in triplicates.

Sequence of ryanodine receptor type 1 (RyR1) (P11716 whole entry): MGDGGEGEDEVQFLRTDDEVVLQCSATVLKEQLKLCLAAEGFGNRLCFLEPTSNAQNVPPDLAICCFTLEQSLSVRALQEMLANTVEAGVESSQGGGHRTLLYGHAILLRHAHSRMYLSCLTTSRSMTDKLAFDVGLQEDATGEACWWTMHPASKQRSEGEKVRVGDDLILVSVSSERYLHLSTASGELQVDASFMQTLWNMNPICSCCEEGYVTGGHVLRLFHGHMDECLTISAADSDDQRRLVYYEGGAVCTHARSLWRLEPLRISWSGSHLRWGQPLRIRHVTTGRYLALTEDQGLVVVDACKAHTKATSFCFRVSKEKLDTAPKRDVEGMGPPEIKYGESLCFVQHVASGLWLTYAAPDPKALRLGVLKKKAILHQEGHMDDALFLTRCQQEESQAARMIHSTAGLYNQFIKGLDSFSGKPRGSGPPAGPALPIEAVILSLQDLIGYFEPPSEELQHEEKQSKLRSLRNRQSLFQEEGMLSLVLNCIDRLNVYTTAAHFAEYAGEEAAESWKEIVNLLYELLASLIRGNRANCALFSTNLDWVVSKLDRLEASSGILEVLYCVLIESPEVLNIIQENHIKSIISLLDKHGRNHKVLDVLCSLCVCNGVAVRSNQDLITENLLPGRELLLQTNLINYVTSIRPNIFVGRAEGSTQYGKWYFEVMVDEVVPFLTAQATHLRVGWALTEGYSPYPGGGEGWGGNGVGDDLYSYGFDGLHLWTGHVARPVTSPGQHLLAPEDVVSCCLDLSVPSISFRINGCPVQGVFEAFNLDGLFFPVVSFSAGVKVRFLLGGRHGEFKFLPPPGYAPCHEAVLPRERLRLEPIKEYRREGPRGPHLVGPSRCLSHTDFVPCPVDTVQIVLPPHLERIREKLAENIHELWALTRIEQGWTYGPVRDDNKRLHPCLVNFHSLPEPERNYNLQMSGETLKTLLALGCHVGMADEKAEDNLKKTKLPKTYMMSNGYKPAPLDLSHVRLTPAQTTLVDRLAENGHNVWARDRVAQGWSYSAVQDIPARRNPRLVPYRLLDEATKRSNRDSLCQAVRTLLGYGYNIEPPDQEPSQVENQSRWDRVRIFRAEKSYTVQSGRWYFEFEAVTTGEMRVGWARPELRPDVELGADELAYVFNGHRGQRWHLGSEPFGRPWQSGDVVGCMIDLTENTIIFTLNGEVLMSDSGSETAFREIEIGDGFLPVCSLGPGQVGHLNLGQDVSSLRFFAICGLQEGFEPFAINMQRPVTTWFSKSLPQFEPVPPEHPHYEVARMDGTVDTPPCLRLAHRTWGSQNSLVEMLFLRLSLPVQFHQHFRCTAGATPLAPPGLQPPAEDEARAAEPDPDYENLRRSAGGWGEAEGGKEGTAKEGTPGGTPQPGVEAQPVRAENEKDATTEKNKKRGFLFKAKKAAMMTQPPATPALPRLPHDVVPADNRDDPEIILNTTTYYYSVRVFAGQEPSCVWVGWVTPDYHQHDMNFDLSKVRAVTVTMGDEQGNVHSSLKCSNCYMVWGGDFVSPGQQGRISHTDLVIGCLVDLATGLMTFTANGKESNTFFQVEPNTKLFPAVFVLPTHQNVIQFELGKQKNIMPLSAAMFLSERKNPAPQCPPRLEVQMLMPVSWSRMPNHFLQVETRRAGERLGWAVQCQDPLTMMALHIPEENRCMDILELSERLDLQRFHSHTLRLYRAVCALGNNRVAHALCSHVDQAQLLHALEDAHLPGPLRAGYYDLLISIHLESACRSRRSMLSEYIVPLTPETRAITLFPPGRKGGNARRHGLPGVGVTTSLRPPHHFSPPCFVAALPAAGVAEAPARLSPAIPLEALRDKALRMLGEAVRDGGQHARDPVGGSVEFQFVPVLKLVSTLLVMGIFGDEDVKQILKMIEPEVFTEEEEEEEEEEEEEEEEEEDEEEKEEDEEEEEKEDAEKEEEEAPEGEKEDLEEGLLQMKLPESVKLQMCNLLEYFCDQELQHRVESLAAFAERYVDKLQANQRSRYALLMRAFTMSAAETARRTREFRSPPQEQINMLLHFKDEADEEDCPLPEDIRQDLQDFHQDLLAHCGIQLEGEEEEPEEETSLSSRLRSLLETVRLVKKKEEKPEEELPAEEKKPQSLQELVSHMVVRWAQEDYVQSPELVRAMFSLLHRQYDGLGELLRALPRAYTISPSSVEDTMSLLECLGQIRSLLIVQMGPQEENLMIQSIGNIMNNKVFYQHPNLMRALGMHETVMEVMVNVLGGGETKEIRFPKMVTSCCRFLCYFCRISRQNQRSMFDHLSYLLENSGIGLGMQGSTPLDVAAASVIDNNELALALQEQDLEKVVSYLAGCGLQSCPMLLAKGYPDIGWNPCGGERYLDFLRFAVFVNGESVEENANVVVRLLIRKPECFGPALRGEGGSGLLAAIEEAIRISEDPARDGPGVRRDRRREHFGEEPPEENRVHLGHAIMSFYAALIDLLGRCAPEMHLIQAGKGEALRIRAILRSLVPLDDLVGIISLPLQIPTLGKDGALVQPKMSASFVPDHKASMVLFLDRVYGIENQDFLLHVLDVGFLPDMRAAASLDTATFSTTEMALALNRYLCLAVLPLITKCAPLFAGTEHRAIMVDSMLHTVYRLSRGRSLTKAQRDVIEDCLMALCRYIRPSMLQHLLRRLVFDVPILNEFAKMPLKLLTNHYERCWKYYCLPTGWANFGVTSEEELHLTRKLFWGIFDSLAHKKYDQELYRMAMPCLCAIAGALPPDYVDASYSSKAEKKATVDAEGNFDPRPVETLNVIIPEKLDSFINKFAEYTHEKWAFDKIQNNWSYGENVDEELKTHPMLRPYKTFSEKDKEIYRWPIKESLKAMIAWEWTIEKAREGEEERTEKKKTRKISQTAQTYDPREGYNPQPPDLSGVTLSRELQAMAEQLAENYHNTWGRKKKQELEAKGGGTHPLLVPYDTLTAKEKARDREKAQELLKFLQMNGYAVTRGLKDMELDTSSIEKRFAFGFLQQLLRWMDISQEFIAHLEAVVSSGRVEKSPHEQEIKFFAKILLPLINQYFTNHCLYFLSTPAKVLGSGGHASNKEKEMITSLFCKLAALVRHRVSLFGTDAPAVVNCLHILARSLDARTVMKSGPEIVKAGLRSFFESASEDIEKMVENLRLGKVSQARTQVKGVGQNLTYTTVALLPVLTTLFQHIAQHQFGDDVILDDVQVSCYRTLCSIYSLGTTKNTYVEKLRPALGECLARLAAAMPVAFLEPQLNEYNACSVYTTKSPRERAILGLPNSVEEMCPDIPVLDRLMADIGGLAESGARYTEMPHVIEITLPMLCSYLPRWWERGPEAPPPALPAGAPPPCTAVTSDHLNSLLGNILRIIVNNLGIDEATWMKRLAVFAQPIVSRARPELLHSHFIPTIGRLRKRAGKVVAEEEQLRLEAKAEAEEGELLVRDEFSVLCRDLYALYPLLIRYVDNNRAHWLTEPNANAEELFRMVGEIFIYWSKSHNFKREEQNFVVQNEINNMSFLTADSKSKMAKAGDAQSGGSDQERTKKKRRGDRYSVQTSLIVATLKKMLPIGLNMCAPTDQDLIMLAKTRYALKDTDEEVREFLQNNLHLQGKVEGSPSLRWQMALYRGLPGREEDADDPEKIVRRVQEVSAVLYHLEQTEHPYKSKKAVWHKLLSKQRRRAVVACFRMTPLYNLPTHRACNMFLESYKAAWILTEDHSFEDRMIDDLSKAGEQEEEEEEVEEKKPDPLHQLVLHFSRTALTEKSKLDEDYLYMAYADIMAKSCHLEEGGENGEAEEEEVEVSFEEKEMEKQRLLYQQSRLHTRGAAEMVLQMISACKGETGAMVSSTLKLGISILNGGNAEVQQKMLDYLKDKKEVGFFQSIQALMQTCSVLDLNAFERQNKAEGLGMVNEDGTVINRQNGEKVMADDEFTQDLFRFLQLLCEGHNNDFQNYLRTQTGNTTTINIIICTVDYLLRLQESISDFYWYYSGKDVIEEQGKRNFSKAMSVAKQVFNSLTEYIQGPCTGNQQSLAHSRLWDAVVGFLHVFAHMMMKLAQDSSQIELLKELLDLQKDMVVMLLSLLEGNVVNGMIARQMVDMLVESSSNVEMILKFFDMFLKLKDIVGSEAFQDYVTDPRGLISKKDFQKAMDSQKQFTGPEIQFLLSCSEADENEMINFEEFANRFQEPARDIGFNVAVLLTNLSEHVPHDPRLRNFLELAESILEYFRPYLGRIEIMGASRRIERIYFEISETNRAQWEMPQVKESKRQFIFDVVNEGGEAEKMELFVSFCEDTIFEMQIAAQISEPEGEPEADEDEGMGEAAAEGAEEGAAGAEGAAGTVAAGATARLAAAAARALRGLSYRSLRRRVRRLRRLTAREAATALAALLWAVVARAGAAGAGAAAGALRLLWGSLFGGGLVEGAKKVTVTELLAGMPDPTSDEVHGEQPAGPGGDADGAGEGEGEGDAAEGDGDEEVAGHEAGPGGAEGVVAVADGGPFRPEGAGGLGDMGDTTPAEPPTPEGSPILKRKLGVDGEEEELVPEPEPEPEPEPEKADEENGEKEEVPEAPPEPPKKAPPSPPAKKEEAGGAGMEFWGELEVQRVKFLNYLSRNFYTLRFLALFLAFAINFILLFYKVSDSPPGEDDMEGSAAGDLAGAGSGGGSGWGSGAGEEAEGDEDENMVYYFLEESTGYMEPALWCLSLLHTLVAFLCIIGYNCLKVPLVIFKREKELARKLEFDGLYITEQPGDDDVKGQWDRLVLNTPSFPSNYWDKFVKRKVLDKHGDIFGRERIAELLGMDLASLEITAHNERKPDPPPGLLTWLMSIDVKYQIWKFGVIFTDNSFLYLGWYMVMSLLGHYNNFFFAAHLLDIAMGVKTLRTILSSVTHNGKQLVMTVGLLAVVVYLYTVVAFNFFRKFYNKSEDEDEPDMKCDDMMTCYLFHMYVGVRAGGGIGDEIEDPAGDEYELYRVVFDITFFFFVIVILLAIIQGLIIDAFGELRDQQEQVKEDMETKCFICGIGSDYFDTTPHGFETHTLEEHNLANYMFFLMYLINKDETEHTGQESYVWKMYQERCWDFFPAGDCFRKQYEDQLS

As for GDCLPHLKLCKENKDCCSKKCKRRGTNIEKRCR [MCa], on proteoglycans, the “affinity of interaction with proteoglycans” value is “micromolar range”. Also, in series [1], the associated toxicity entry is listed as “almost no associated toxicity”. In addition, in the series with cells (earlier reports), the cell penetration efficiency result was “penetrates into cells at very low concentrations”. The “pharmacological action on / interaction with RyR1” value in series [2] is reported as “exquisite pharmacological activator”. In addition, in series [3], the stability in vivo result was “over 24 hrs”.

With “MCaUF1-33: unfolded full-length MCa, six Cys replaced by 2-aminobutyric acid (Abu) (GD[Abu]LPHLKL[Abu]KENKD[Abu][Abu]SKK[Abu]KRRGTNIEKR[Abu]R; not fully specified (residue 33))”, the “amiloride sensitivity of cell entry” value in the series on cells (streptavidine as cargo, earlier studies) is given as “largely sensitive to amiloride”. The “pharmacological action on / interaction with RyR1” value in series [2] is on record as “unable to interact with MCa's target, the ryanodine receptor RyR1”.

For “KDaaSKKaKRRGC (KD[Abu][Abu]SKK[Abu]KRRGC) [MCaUF14-25-C]”, in the series on CHO cells, the “cell toxicity, comparison” value was “slightly more toxic than 1 μM except for MCaUF14-25-C”.
